Peptide text beside a SMILES is read from it.
Compound	logP
CCCCCOCc1cccc(NC(=O)OCCN2CCCCC2)c1	4.2
CSc1ccccc1N	1.2
O=C(O)CCCCCC(=O)O	0.61
CC(=O)c1cc2ccccc2nn1	1.44
COc1ccccc1[N+](=O)[O-]	1.73
CC(=O)OC[C@H]1O[C@H](OC(C)=O)[C@H](OC(C)=O)[C@@H](OC(C)=O)[C@@H]1OC(C)=O	0.63
O=C(O)CS	0.09
CC1(C)S[C@@H]2[C@H](NC(=O)C(C(=O)O)c3ccccc3)C(=O)N2[C@H]1C(=O)O (stereo not given in full)	1.13
CNC(=O)OCc1cccc(COC(=O)NC)n1	0.24
O=C(O)COc1ccc(O)cc1	0.65
CC(=O)c1cccc([N+](=O)[O-])c1	1.42
CN=Cc1ccccc1	1.64
c1cn(C23CC4CC(CC(C4)C2)C3)cn1	2.9
O=C(O)Cc1ccc(O)cc1	0.75
Cc1cc(C)nc(C)c1	1.88
C=C1C(=O)OC2C1CCC(C)C1C=CC(=O)C12C (stereo not given)	1.03
CCCC[SiH](C)C	3.57
CCCCC(N)C(=O)O (stereo not given)	-1.53
CC(C)c1nnc(S)n(N)c1=O	1.22
CC(=O)N[C@@H](CO)C(=O)N[C@@H](Cc1ccccc1)C(N)=O	-0.79
O=C(O)C1CC1	0.63
COCC1COC(Cn2cncn2)(c2ccc(Cl)cc2Cl)O1 (stereo not given)	2.21

Compound	logP
CNCC(F)(F)F	0.55
CNC(=O)Oc1ccc(OC)cc1	1.2
O=C(O)COc1cccc([N+](=O)[O-])c1	1.37
O=S1(=O)OC(c2ccc(O)cc2)(c2ccc(O)cc2)c2ccccc21	3.02
CN(C)C(N(C)C)=S(I)c1ccccc1[N+](=O)[O-] (stereo not given)	-0.92
CC1(O)CC23CC(O)C4(O)C(CC(O)C4(C)C)C(C)(O)C2CCC1C3O (stereo not given)	0.27
CC(C)(C)N(CC(O)COc1ccccc1)CC(O)COc1ccccc1 (stereo not given)	3.99
O=C(O)c1cccc(O)c1O	1.2
CN(C)CCCNC(=O)c1ccccc1	1.27
NCC(=O)NCC(=O)O	-2.92
Nc1ccc(S(=O)(=O)c2ccc(F)cc2)cc1	2.17
C[C@@H]1C[C@H]2C3C[C@H](F)C4=CC(=O)C=CC4(C)[C@@]3(F)[C@@H](O)CC2(C)[C@@]1(O)C(=O)COC(=O)C(C)(C)C (stereo not given in full)	3.86
C#Cc1ccccc1	2.53
CCC(C)C(NC(=O)C(Cc1ccccc1)NC(C)=O)C(=O)NCC(N)=O (stereo not drawn) (Ac-Phe-Ile-Gly-NH2; configuration not given here)	0.34
C=C(C)C(=O)OCCO	0.47
FC(F)(F)F	1.18
NS(=O)(=O)c1cccc([N+](=O)[O-])c1	0.55
C[n+]1cccc2ccccc21.[Br-]	-2.64
CCCCCCCI	4.7
O=C(CN1CCCCC1)Nc1cccc([N+](=O)[O-])c1	2.59
FC(Cl)Cl	1.55
Nc1c2ccccc2nc2ccccc12	2.74

Compound	logP
Clc1cc(Cl)c(Cl)c(Cl)c1	4.56
CN(C)C(N(C)C)=S(I)c1ccccc1C(=O)O (stereo not given)	-1.4
CC1=NS(=O)(=O)c2ccc(C(F)(F)F)cc2N1	1.59
CCCOc1ccc([N+](=O)[O-])c(S(C)(=O)=O)c1	1.1
Cc1[nH]cnc1CSCCNc1cccc(=O)[nH]1	0.79
OC(c1ccc(Cl)cc1)(c1ccc(Cl)cc1)C1CC1	5.5
c1cc2ccsc2cn1	1.74
Cc1cccc2ncc(-c3ccccc3)c(=O)n12	2.59
CC(=O)C(Cc1ccccc1)C(C)=O	1.89
CCC1COC(Cn2cncn2)(c2ccc(-c3ccccc3)cc2)O1 (stereo not given)	3.71
CC(=O)c1cccc(Cl)c1	2.51
NC(=O)c1ccncc1	-0.28
CC(=NO)c1cccs1	1.81
CNC(=O)Oc1ccc(Cl)c(Cl)c1	2.8
O=C(O)Cc1cccc(Br)c1	2.37
CCCCCCC1(c2ccncc2)CCC(=O)NC1=O (stereo not given)	2.94
CCCCCCCOC(N)=O	2.36
CCN(CC)C(=O)C1C2CC3C(OC(=O)C31)C2O (stereo not given)	0.15
CCC1(CC)C(=O)NC(=O)N(C(C)C)C1=O	2.36
C[C@]12CCC(=O)C=C1CC[C@@H]1[C@@H]2CC[C@@]2(C)[C@H]1CC[C@]2(C)O	3.36
O=C(/C=C/c1ccccc1)c1ccccc1	3.08
CCOC(=O)C(=Cc1ccccc1[N+](=O)[O-])C(=O)OCC	2.54

Compound	logP
O=C(CNC(=O)c1ccccc1)Oc1cccc([N+](=O)[O-])c1	2.46
C#C[C@]1(O)CC[C@H]2[C@@H]3CCC4=CC(=O)CC[C@@H]4[C@H]3CC[C@@]21C	2.97
C=CCCCCCC	4.57
Nc1nc(N)nc(-c2ccccc2[N+](=O)[O-])n1	0.49
COc1cc(SC)c(OC)cc1CC(C)N (stereo not given)	2.17
NC(=O)CCCCOC(=O)c1ccccc1	1.39
CC1COC(=O)O1 (stereo not given)	-0.41
CCC(C)NC(=O)C=C(Br)c1ccccc1 (stereo not given)	3.56
COc1cc([C@@H]2c3cc4c(cc3C(O[C@@H]3O[C@@H]5COC(c6cccs6)O[C@H]5[C@H](O)[C@H]3O)C3COC(=O)[C@@H]32)OCO4)cc(OC)c1O (stereo not given in full)	1.24
CCNc1nc(Cl)nc(NC(C)C)n1	2.61
CCOC(=O)C(=Cc1cccc(Cl)c1)C(C)=O	2.97
C/C=C/C=C/C(=O)O	1.33
COc1cc2c(c(OC)c1O)-c1ccc(OC)c(=O)cc1[C@@H](NC(=O)C(F)(F)F)CC2	1.67
CCC(C)NC(=O)C=C(Cl)c1ccccc1 (stereo not given)	3.52
O=c1cc[nH]c2cc(C(F)(F)F)ccc12	2.05
Cc1cc(O)ccc1Cl	3.1
C[Si](C)(C)c1ccc(O)cc1	3.84
CC(=O)c1c[nH]c2ccccc12	2.06
NC(=O)Cn1ccnc1[N+](=O)[O-]	-1.22
CC(C)C[C@H](N)C(=O)O	-1.52
CC(=O)OCC1=C(C(=O)O)N2C(=O)C(NC(=O)COc3ccccc3)C2SC1 (stereo not given)	0.26
N#CCC(=O)NC(CO)C(O)c1ccc([N+](=O)[O-])cc1 (stereo not given)	-0.22

Compound	logP
Cc1nccnc1CC(C)C	1.96
COc1ccc(Cl)nn1	0.89
Nc1c([N+](=O)[O-])cccc1[N+](=O)[O-]	1.79
CCOP(=S)(OCC)SCn1nnc2ccccc2c1=O	3.4
Clc1cc2ccccc2cc1Cl	4.42
O=C1NCN(c2ccccc2)C12CCN(CCCC(c1ccc(F)cc1)c1ccc(F)cc1)CC2	5.86
CSCC(=O)C=NO	1.21
BrCCCc1ccccc1	3.72
CCSC(=O)N1CCCCCC1	3.21
COC1=CC(=O)c2ccccc2C1=O	1.35
OCc1cccc(O)c1	0.49
NCCc1ccncc1	-0.01
CC(C)CC(=O)NC(N)=O	0.45
ON=Cc1ccc(F)cc1	2.03
CS(=O)(=O)c1ccc(N)cc1	-0.12
CCOc1ccc([N+](=O)[O-])cc1	2.53
Cc1ccc2c(c1)c([N+](=O)[O-])cc[n+]2[O-]	1.43
Nc1ccc(C(=O)O)c(I)c1	1.65
CC(C)NCC(O)c1ccc(Cl)c(Cl)c1 (stereo not given)	3.32
c1ccc(Nc2cccc3ccccc23)cc1	4.2
O=C(CNC(=O)c1ccccc1)Oc1ccccc1	2.31
O=C(O)c1cccc(C(=O)O)c1	1.66

— the OPERA property sets (Mansouri et al. 2018)
